Source: PubChem BioAssay (NCI)
Where “and” joins values, the source holds several entries; their conditions need not be identical. Equal values may be shown once.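 Step 1: Grow cells in 96-well plates. Step 2: Expose to compound for 48 hours at 5 concentrations. Step 3: Interpolate endpoints linearly; if unreached, use highest concentration. GI50: concentration for 50% inhibition of growth. At the TGI there is no net growth.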

Assays:
Test in all cases: DTP human tumour cell line panel, 48 h
[1] = tested on: SK-MEL-5 melanoma
[2] = tested on: DU-145 prostate
[3] = tested on: NCI/ADR-RES ovarian
[4] = tested on: A549 NSCLC
[5] = tested on: COLO 205 colon
[6] = tested on: PC-3 prostate
[7] = tested on: SF-268 CNS
[8] = tested on: CCRF-CEM leukemia

Compound | GI50 [1] [nM] | TGI [1] [µM] | GI50 [2] | TGI [2] [µM] | GI50 [3] | TGI [3] | GI50 [4] | TGI [4] [µM] | GI50 [5] | TGI [5] | GI50 [6] | TGI [6] [µM] | GI50 [7] | TGI [7] | GI50 [8] | TGI [8] [µM]
CC(C)COCC(CN(Cc1ccccc1)c1ccccc1)N1CCCC1 (stereo not given) | 1650 | 3.01 | 3.76 µM | 13.6 | 3.12 µM | 14.4 µM | 3.48 µM | 13.5 | 1530 nM | 3.52 µM | 3.04 µM | 13.9 | 4.01 µM | 16.1 µM | 2.71 µM | 13.7
N#CC1=C(N)Oc2c(sc3c(Br)cccc23)C1c1ccc(Br)cc1 (stereo not given) | 2210 | 14.6 | 0.571 µM | 2.82 | 0.416 µM | 5.14 µM | 0.424 µM | 2.23 | 406 nM | 1.88 µM | 0.516 µM | 6.32 | 1.15 µM | 10 µM | 0.496 µM | 13.6
CC(NCCC(=O)N(CCC(=O)N(CCC(=O)N(CCC(=O)N(CCC(=O)N(CCC(=O)N(CCC(=O)N(CCC(=O)N(CCC(=O)N(CCC(=O)O)[C@H](C)c1ccccc1)[C@H](C)c1ccccc1)[C@H](C)c1ccccc1)[C@H](C)c1ccccc1)[C@H](C)c1ccccc1)[C@H](C)c1ccccc1)[C@H](C)c1ccccc1)[C@H](C)c1ccccc1)[C@H](C)c1ccccc1)c1ccccc1 (stereo not given in full) | 1160 | 2.36 | 2.34 µM | 12.3 | > 75 µM | > 75 µM | 3.56 µM | > 75 | 1430 nM | 2.83 µM | 2.66 µM | > 75 | 2.45 µM | > 38.7 µM | 1.89 µM | > 19.5
FC(F)(F)c1ccc(C#Cc2ccccc2C#Cc2ccccc2)cc1 | 32700 | > 100 | 48 µM | > 100 | 62.8 µM | > 100 µM | 49.9 µM | > 100 | 34300 nM | > 100 µM | 51.5 µM | > 100 | 42.9 µM | > 100 µM | 26 µM | 61.6
O=C1C=CC[C@H](/C=C/c2ccccc2)O1 | 3390 | 16.6 | 2.82 µM | 9.07 | 3.12 µM | > 23.2 µM | 3.56 µM | > 100 | 2030 nM | 20.2 µM | 3.37 µM | 27.5 | 2.44 µM | 16.6 µM | 9.5 µM | > 50.2
O=C(c1ccccc1)C(Br)C(Br)c1cccc([N+](=O)[O-])c1 (stereo not given) | 2890 | 10.8 | 2.48 µM | 6.33 | 2.88 µM | 8.82 µM | 14.3 µM | 32.3 | 1860 nM | 3.46 µM | 2.26 µM | 6.84 | 2.47 µM | 6.77 µM | 0.574 µM | 2.78
CCCCCCCCCCCCOC1C(C(COC2OC(C3COC(C)(C)O3)C3OC(C)(C)OC23)NC(=O)NS(=O)(=O)c2ccccc2)OC2OC(C)(C)OC21 (stereo not given) | 2510 | 6.34 | 2.74 µM | 8.39 | 7.18 µM | 23.6 µM | 4.58 µM | 27.3 | 4370 nM | 20.7 µM | 3.27 µM | 13.8 | 4.34 µM | 19.6 µM | 2.34 µM | 7.49
O=S(=O)(c1cccc2c(Cl)cccc12)N1CCCNCC1 | 13600 | 26.5 | 17.1 µM | 32.1 | 13.7 µM | 26.6 µM | 14 µM | 28.2 | 16400 nM | 35.4 µM | 13.8 µM | 26.8 | 21.8 µM | 52.9 µM | 15.1 µM | 28.4
Cc1ccc2c(c1)C(C)Cc1c(Cl)ncnc1N2C (stereo not given) | 1860 | 3.41 | 4.21 µM | 91.9 | 2.73 µM | 23.1 µM | 4.26 µM | > 100 | 2110 nM | 4.62 µM | 3.62 µM | 72.1 | 2.5 µM | 13.8 µM | 3.82 µM | > 100
Nc1c([N+](=O)[O-])cc2c3c(cccc13)CC2 |  | > 100 |  | > 100 |  | > 100 µM |  | > 100 |  | > 100 µM |  | > 100 |  | > 100 µM |  | > 100
CN1C(=O)C(CC(=O)O)NC1=S (stereo not given) |  | > 100 |  | > 100 |  | > 100 µM |  | > 100 |  | > 100 µM |  | > 100 |  | > 100 µM |  | > 100
CC(C)c1c(O)ccc2c1CCC1C(C)(C)CCCC21C (stereo not given) |  | 29.9 |  | 28.3 |  | 31.2 µM |  | 31.9 |  | 32 µM |  | 31.4 |  | 35.5 µM |  | 49.3
Cc1ccc2nc(-c3ccccc3)c(N=O)n2c1 |  | > 100 |  | > 100 |  | > 100 µM |  | > 100 |  | > 100 µM |  | > 100 |  | > 100 µM |  | > 100
CC1(O)CC(c2nc(-c3ccc4ccc(-c5ccccc5)nc4c3)c3c(N)nccn23)C1 (stereo not given) | 3380 | 14.9 | 7.4 µM and 8.12 µM | > 86.8 | 10.6 µM and > 10 µM | 96.9 µM and > 10 µM | 10.5 µM and > 10 µM | > 100 | 346 nM and 98.9 nM | 14.2 µM and 4.07 µM | 12.7 µM and > 10 µM | > 100 | 12.9 µM and > 10 µM | 55.3 µM and > 10 µM | 9.89 µM and > 10 µM | > 100
COC(=O)CCC1CCC(c2cc(F)ccc2F)(S(=O)(=O)c2ccc(Cl)cc2)CC1 (stereo not given) | 28400 | > 100 | > 100 µM | > 100 | > 100 µM | > 100 µM | 64.4 µM | > 100 | > 100000 nM | > 100 µM | 30.7 µM | > 100 | > 100 µM | > 100 µM | > 100 µM | > 100
Oc1ccccc1C=Nc1nc(SCc2ccccc2)nc2[nH]ncc12 | 11900 | 26.3 | > 100 µM | > 100 | 43.8 µM | > 100 µM | 65.2 µM | > 100 | 29100 nM | > 100 µM | 37.2 µM | > 100 | 28.2 µM | > 100 µM | 45.7 µM | > 100
CCCCCCCCCCC(C(O)c1ccccc1)N1CCCCC1 (stereo not given) | 1690 | 3.06 | 2.07 µM | 6.72 | 2.99 µM | 10.7 µM | 4.61 µM | 17.1 | 1540 nM | 2.93 µM | 3.43 µM | 12.4 | 1.51 µM | 4.73 µM | 1.97 µM | 7.77
CCN1C(=O)N(c2ccccc2)C2NC(=S)N(/N=C/C=C/c3ccccc3)C21 (stereo not given) | 463 | > 100 | 0.444 µM | > 100 | 0.288 µM | > 100 µM | 0.417 µM | > 100 | 344 nM | 8.7 µM | 0.394 µM | > 100 | 1.02 µM | > 100 µM | 0.35 µM | > 100
O=c1[nH]c(=O)c2cc(C3CC(O)C(CO)O3)ccc2[nH]1 (stereo not given) | > 100000 | > 100 | > 100 µM | > 100 | > 100 µM | > 100 µM | > 100 µM | > 100 | > 100000 nM | > 100 µM | > 100 µM | > 100 | > 100 µM | > 100 µM | > 100 µM | > 100
CNCCNc1c2c(c(NCCNC)c3[nH]ccc13)C(=O)c1ccccc1C2=O | 421 | 0.901 | 0.526 µM | 1.31 | 1.26 µM | 8.21 µM | 0.0904 µM | 0.427 | 3320 nM |  | 0.0593 µM | 0.309 | 0.222 µM | 0.876 µM | 0.0148 µM | 0.203
O=C(Nc1ccc2[nH]c(=S)sc2c1)Nc1ccccc1F | 17300 | 84.1 | 59.4 µM | > 100 | 21.9 µM | > 100 µM | 51.2 µM | > 100 | 24500 nM | 65.4 µM | 21.5 µM | > 100 | 38.2 µM | > 100 µM | 26.7 µM | > 100
COc1ccc(-n2cc(-c3cc(OC)c(OC)c(OC)c3)nc2SCc2ccccc2)cc1OC | 15600 | > 100 | > 100 µM | > 100 | > 100 µM | > 100 µM | 48.8 µM | > 100 | 69300 nM | > 100 µM | 15.3 µM | > 100 | > 100 µM | > 100 µM | > 100 µM | > 100
COc1ccc(S(=O)(=O)Nc2cc(/C=C\c3cc(OC)c(OC)c(OC)c3)ccc2OC)cc1 | 48.8 | 0.778 | 0.341 µM | > 100 | 0.0711 µM | 30.8 µM | 0.159 µM | > 100 | 38.3 nM | 0.158 µM | 0.124 µM | > 100 | 0.401 µM | > 100 µM | 0.176 µM | > 100
